The values below are quoted from earlier work in patent US20130079371A1, “Bioadhesive Compositions of Local Anaesthetics” (PHARMANEST AB, priority 2010, published 2013).

As usually defined, the pKa is the negative logarithm of the acid dissociation constant.

SMILES strings stand for the structures.

With `CCCCN1CCCC[C@H]1C(=O)Nc1c(C)cccc1C` [levobupivacaine], the pKa was 8.1.
